Results taken from paper doi:10.1101/2023.07.11.548539v1, “A side-by-side comparison of peptide-delivered antisense antibiotics employing different nucleotide mimics” (bioRxiv, 2023).

Tested on: outer membrane of Salmonella
Assay: Outer membrane permeabilization (NPN fluorescence)
Assay type: cell-based, Salmonella enterica serovar Typhimurium strain SL1344
Conditions: test compounds 10 µM final, added at 14 min; NPN 10 µM; 5 mM HEPES, 5 mM glucose pH 7.2; CTAB and Polymyxin B positive controls
Method: The experiments were performed by modifying previously published protocols ([48]–[50]). Salmonella (WT SL1344, JVS-1574) were grown overnight in 4 ml MHB medium at 37 °C (with shaking at 220 rpm). Then the culture was diluted 1:100 and grown until OD 0.5 (∼2×10^8 cfu/mL). This culture was harvested and washed two times with 5mM HEPES and further diluted to OD 0.2 in 5 mM HEPES supplemented with 5 mM Glucose (pH 7.2). These cells were then incubated with N-phenylnaphthylamine (NPN) (Sigma, USA) at a final concentration of 10 µM. 190 µl of NPN treated cells were transferred into 96-well back plates with transparent bottom and fluorescence (excitation = 350 nm, emission = 420 nm) was recorded for 60 min (reading was performed every minute) using a Synergy H1 plate reader (Biotek). On the fourteenth minute, 10 µl of the test compounds (10 µM final concentration) was added into the wells. CTAB (Sigma, USA) 200 µM or Polymyxin B (Sigma, USA) 10 µg/ml (final concentration of 0.5 µg/ml) were used as positive controls, while water was used as negative control. The fluorescence of the wells were monitored using the same settings as above. The experiment was performed three times and Figure 10 is based on a single representative experiment.

CCCCCCCCCCCCCCCC[N+](C)(C)C.[Br-] [CTAB, reference compound]
Outer membrane permeabilization, NPN fluorescence (in words): rapid increase in florescence

Polymyxin B [reference compound]
Outer membrane permeabilization, NPN fluorescence (in words): rapid increase in florescence
